Assay results as given in US12441768B2, “Compositions and methods for treating endometriosis” (EndoMet Biosciences, Inc., priority 2018, dated 2025).
Where a SMILES comes first, the peptide text is derived from it.

Tests used:
[1] = molecular target: Wnt-responsive promoter (TCF/LEF); test: Wnt-dependent luciferase reporter assay; format: cell-based, murine
In short: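 EC50 (uM) derived from inhibition of luminescence in Wnt3a-stimulated murine 3T3 cells expressing luciferase under a TCF/LEF promoter, with peptides added across a concentration range and vehicle as control.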

β-catenin = molecular target: T1, β-catenin (Homo sapiens, UniProt P35222); test: KD50 measurement using competitive fluorescence polarization (FP) with labelled TCF4; format: binding; settings: fluorescence polarization, β-catenin; for Kd: read-out: β-Cat FP KD
T1 sequence (P35222 1-781): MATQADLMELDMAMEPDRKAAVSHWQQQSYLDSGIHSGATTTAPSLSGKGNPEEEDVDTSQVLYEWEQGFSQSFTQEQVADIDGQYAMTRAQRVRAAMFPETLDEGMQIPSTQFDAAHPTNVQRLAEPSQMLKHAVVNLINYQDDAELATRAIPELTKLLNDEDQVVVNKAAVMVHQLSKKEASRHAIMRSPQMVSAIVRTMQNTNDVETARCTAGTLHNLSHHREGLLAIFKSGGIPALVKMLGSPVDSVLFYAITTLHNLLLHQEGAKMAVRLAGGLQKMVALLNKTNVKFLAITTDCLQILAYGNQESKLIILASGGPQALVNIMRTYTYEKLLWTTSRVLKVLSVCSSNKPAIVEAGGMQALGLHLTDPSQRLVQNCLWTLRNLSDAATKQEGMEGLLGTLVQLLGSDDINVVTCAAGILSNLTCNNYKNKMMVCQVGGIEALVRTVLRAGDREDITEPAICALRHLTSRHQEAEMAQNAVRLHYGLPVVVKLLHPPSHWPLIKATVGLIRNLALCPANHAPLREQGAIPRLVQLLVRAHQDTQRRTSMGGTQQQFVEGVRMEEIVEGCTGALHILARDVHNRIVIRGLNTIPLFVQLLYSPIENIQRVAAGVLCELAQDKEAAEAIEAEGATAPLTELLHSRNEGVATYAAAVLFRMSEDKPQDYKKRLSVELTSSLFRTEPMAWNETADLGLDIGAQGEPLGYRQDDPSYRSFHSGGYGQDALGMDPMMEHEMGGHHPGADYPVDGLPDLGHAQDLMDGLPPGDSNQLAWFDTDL
In short: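 Each compound competes against labelled TCF4 (5 nM) for 100 nM β-catenin at room temperature, tested over 10 nM to 30 uM. Signal: polarization at 470/520 nm excitation/emission. Three repeat experiments were performed.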

[2] = % Viability non-Wnt responsive cells

| Structure (SMILES) | EC50 [1] | Kd (β-catenin) | viability [2] | β-Cat FP Hill slope (β-catenin) |
| --- | --- | --- | --- | --- |
| CC[C@H](C)[C@@H]1NC(=O)[C@H](CC(C)C)NC(=O)[C@H](Cc2ccccc2)NC(=O)[C@H](Cc2c[nH]c3ccccc23)NC(=O)[C@H](CCSC)NC(=O)[C@@H](N)CCCCNC(=O)CC[C@@H](C(=O)N[C@@H](Cc2c[nH]c3ccccc23)C(=O)NCC(=O)O)NC(=O)[C@H](CS)NC1=O [compound 180] (HELM PEPTIDE1{K.M.W.F.L.I.C.E.W.G}$PEPTIDE1,PEPTIDE1,1:R3-8:R3$$$V2.0) | < 7.5 µM | > 30 µM | 103% | – |
| CC[C@H](C)[C@@H]1NC(=O)[C@H](CC(C)C)NC(=O)[C@H]([C@@H](C)CC)NC(=O)[C@H](Cc2c[nH]c3ccccc23)NC(=O)[C@@H](N)CCCCNC(=O)CC[C@@H](C(=O)O)NC(=O)[C@H](Cc2c[nH]c3ccccc23)NC(=O)[C@H](Cc2ccccc2)NC(=O)[C@H](CO)NC1=O [compound 182] (HELM PEPTIDE1{K.W.I.L.I.S.F.W.E}$PEPTIDE1,PEPTIDE1,1:R3-9:R3$$$V2.0) | 22.5 to 30 µM | 0.4 to 1 µM | 95.3% | 1.06 |
| CC[C@H](C)[C@@H]1NC(=O)[C@H](CC(C)C)NC(=O)[C@H](Cc2ccccc2)NC(=O)[C@H](Cc2c[nH]c3ccccc23)NC(=O)[C@@H](N)CCCCNC(=O)CC[C@@H](C(=O)O)NC(=O)[C@H](Cc2c[nH]c3ccccc23)NC(=O)[C@H](C)NC(=O)[C@H](CO)NC1=O [compound 183] (HELM PEPTIDE1{K.W.F.L.I.S.A.W.E}$PEPTIDE1,PEPTIDE1,1:R3-9:R3$$$V2.0) | < 7.5 µM | 1 to 10 µM | 97% | 0.7 |
| CC[C@H](C)[C@@H]1NC(=O)[C@H](CC(C)C)NC(=O)[C@H]([C@@H](C)CC)NC(=O)[C@H](Cc2c[nH]c3ccccc23)NC(=O)[C@@H](N)CCCCNC(=O)CC[C@@H](C(=O)O)NC(=O)[C@H](Cc2c[nH]c3ccccc23)NC(=O)[C@H](C)NC(=O)[C@H](CO)NC1=O [compound 184] (HELM PEPTIDE1{K.W.I.L.I.S.A.W.E}$PEPTIDE1,PEPTIDE1,1:R3-9:R3$$$V2.0) | < 7.5 µM | 10 to 30 µM | 95.2% | 0.7 |
| CC[C@H](C)[C@@H]1NC(=O)[C@H](CC(C)C)NC(=O)[C@H](Cc2ccccc2)NC(=O)[C@H](Cc2c[nH]c3ccccc23)NC(=O)[C@@H](NC(C)=O)CCCCNC(=O)CC[C@@H](C(=O)O)NC(=O)[C@H](Cc2c[nH]c3ccccc23)NC(=O)[C@H](Cc2ccccc2)NC(=O)[C@H](CS)NC1=O [compound 185] (HELM PEPTIDE1{[ac].K.W.F.L.I.C.F.W.E}$PEPTIDE1,PEPTIDE1,2:R3-10:R3$$$V2.0) | 22.5 to 30 µM | < 0.4 µM | 87.8% | 1.32 |
| CC[C@H](C)[C@@H]1NC(=O)[C@H](CC(C)C)NC(=O)[C@H](Cc2ccccc2)NC(=O)[C@H](Cc2c[nH]c3ccccc23)NC(=O)[C@H](CCSC)NC(=O)[C@@H](NC(C)=O)CCCCNC(=O)CC[C@@H](C(=O)O)NC(=O)[C@H](Cc2c[nH]c3ccccc23)NC(=O)[C@H](Cc2ccccc2)NC(=O)[C@H](CS)NC1=O [compound 186] (HELM PEPTIDE1{[ac].K.M.W.F.L.I.C.F.W.E}$PEPTIDE1,PEPTIDE1,2:R3-11:R3$$$V2.0) | > 30 µM | 0.4 to 1 µM | 96.4% | 1.07 |
| CC[C@H](C)[C@@H]1NC(=O)[C@H](CC(C)C)NC(=O)[C@H](Cc2ccccc2)NC(=O)[C@H](Cc2c[nH]c3ccccc23)NC(=O)[C@@H](NC(C)=O)CCCCNC(=O)CC[C@@H](C(=O)O)NC(=O)[C@H](Cc2c[nH]c3ccccc23)NC(=O)[C@H](C)NC(=O)[C@H](CO)NC1=O [compound 187] (HELM PEPTIDE1{[ac].K.W.F.L.I.S.A.W.E}$PEPTIDE1,PEPTIDE1,2:R3-10:R3$$$V2.0) | 7.5 to 15 µM | 1 to 10 µM | 90.3% | 0.7 |
| CC[C@H](C)[C@@H]1NC(=O)[C@H](CC(C)C)NC(=O)[C@H]([C@@H](C)CC)NC(=O)[C@H](Cc2c[nH]c3ccccc23)NC(=O)[C@@H](NC(C)=O)CCCCNC(=O)CC[C@@H](C(=O)O)NC(=O)[C@H](Cc2c[nH]c3ccccc23)NC(=O)[C@H](C)NC(=O)[C@H](CO)NC1=O [compound 188] (HELM PEPTIDE1{[ac].K.W.I.L.I.S.A.W.E}$PEPTIDE1,PEPTIDE1,2:R3-10:R3$$$V2.0) | < 7.5 µM | 10 to 30 µM | 97.6% | 0.7 |
| CC[C@H](C)[C@@H]1NC(=O)[C@H](CC(C)C)NC(=O)[C@H](Cc2ccccc2)NC(=O)[C@H](Cc2c[nH]c3ccccc23)NC(=O)[C@H](CCSC)NC(=O)CCCCCNC(=O)C[C@@H](C(=O)O)NC(=O)[C@H](Cc2c[nH]c3ccccc23)NC(=O)[C@H](Cc2ccccc2)NC(=O)[C@H](CS)NC1=O [compound 189] (HELM PEPTIDE1{[O=C(CCCCCN[*:1])[*:2]].M.W.F.L.I.C.F.W.D}$PEPTIDE1,PEPTIDE1,1:R1-10:R3$$$V2.0) | < 7.5 µM | 0.4 to 1 µM | 99.5% | 1.69 |
| CC[C@H](C)[C@@H]1NC(=O)[C@H](CC(C)C)NC(=O)[C@H](Cc2ccccc2)NC(=O)[C@H](Cc2c[nH]c3ccccc23)NC(=O)[C@H](CCSC)NC(=O)CCCNC(=O)C[C@@H](C(=O)O)NC(=O)[C@H](Cc2c[nH]c3ccccc23)NC(=O)[C@H](C)NC(=O)[C@H](CS)NC1=O [compound 191] (HELM PEPTIDE1{[O=C(CCCN[*:1])[*:2]].M.W.F.L.I.C.A.W.D}$PEPTIDE1,PEPTIDE1,1:R1-10:R3$$$V2.0) | 7.5 to 15 µM | 0.4 to 1 µM | 99.1% | 1.3 |
| CC[C@H](C)[C@@H]1NC(=O)[C@H](CC(C)C)NC(=O)[C@H](Cc2ccccc2)NC(=O)[C@H](Cc2c[nH]c3ccccc23)NC(=O)[C@H](CCSC)NC(=O)CCCCCNC(=O)C[C@@H](C(=O)O)NC(=O)[C@H](Cc2c[nH]c3ccccc23)NC(=O)[C@H](C)NC(=O)[C@H](CS)NC1=O [compound 192] (HELM PEPTIDE1{[O=C(CCCCCN[*:1])[*:2]].M.W.F.L.I.C.A.W.D}$PEPTIDE1,PEPTIDE1,1:R1-10:R3$$$V2.0) | < 7.5 µM | < 0.4 µM | 103% | 1.33 |
| CC[C@H](C)[C@H](NC(=O)[C@H](CC(C)C)NC(=O)[C@H](Cc1ccccc1)NC(=O)[C@H](Cc1c[nH]c2ccccc12)NC(C)=O)C(=O)N[C@@H](CS)C(=O)N[C@@H](Cc1ccccc1)C(=O)N[C@@H](Cc1c[nH]c2ccccc12)C(=O)NCC(=O)O [compound 194] (Ac-WFLICFWG-OH) | < 7.5 µM | 0.4 to 1 µM | 106% | 3 |
| CC[C@H](C)[C@H](NC(=O)[C@H](CC(C)C)NC(=O)[C@@H](NC(=O)[C@H](Cc1c[nH]c2ccccc12)NC(C)=O)[C@@H](C)CC)C(=O)N[C@@H](CO)C(=O)N[C@@H](Cc1ccccc1)C(=O)N[C@@H](Cc1c[nH]c2ccccc12)C(=O)NCC(=O)O [compound 195] (Ac-WILISFWG-OH) | < 7.5 µM | < 0.4 µM | 105% | 3 |
| CC[C@H](C)[C@H](NC(=O)[C@H](CC(C)C)NC(=O)[C@H](Cc1ccccc1)NC(=O)[C@H](Cc1c[nH]c2ccccc12)NC(C)=O)C(=O)N[C@@H](C)C(=O)N[C@@H](Cc1ccccc1)C(=O)N[C@@H](Cc1c[nH]c2ccccc12)C(=O)NCC(=O)O [compound 196] (Ac-WFLIAFWG-OH) | < 7.5 µM | 0.4 to 1 µM | 105% | 2.58 |
| CC[C@H](C)[C@H](NC(=O)[C@H](CC(C)C)NC(=O)[C@H](Cc1ccccc1)NC(=O)[C@H](Cc1c[nH]c2ccccc12)NC(=O)[C@H](CCSC)NC(C)=O)C(=O)N[C@@H](CS)C(=O)N[C@@H](Cc1ccccc1)C(=O)N[C@@H](Cc1c[nH]c2ccccc12)C(=O)NCCCC(=O)O [compound 197] (HELM PEPTIDE1{[ac].M.W.F.L.I.C.F.W.[O=C(O)CCCN[*:1]]}$$$$V2.0) | < 7.5 µM | 0.4 to 1 µM | 89.8% | 1.52 |
| CC[C@H](C)[C@H](NC(=O)[C@H](CC(C)C)NC(=O)[C@H](Cc1ccccc1)NC(=O)[C@H](Cc1c[nH]c2ccccc12)NC(=O)[C@H](CCSC)NC(C)=O)C(=O)N[C@@H](CS)C(=O)N[C@@H](Cc1ccccc1)C(=O)N[C@@H](Cc1c[nH]c2ccccc12)C(=O)NCC(=O)O [compound 198] (Ac-MWFLICFWG-OH) | < 7.5 µM | 0.4 to 1 µM | 81.4% | 2.18 |
